Records with an inconclusive call do not appear. Active and inactive are the calls of the source.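 Rule for the calls: active = compound lowering the normal-ribosome reporter at least twice as much as the humanized-ribosome reporter, growth loss under a set limit; inconclusive = no clear call, values can overlap the other calls; inactive = the rest.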

The experiment deals with E. coli WT-GFP vs G2058-humanized RFP, fluorescence, 24 h. The experiment can be described thus: growth inhibition of wild-type GFP E. coli versus G2058-humanized strain, dose response, G2058 mutant RFP vs wild-type GFP, cherry-pick, two tests (AID 1035470).
Setting [1] is: E. coli WT-GFP vs G2058-humanized RFP mixed culture, total growth OD600, 24 h.
Setting [2] is: measured here: G2058 humanized mutant RFP growth.

Broadly, the AC50 is the concentration giving half of the maximal activity seen. On to `O=c1c2ccccc2nc(SCc2ccccc2)n1CC1CCCO1` (stereo not given), for which, under setting [1], the AC50 was more than 100 µM. Under setting [1], `COc1ccc(C(=O)C[n+]2ccc3c(c2)nc(-c2cc(OC)c(OC)cc2OC)n3C)cc1` returned a half-maximal activity concentration (AC50) of more than 100 µM. Regarding `CC(C)(Nc1ccccc1)C(=O)c1ccccc1`, the AC50 under setting [1] is more than 100 µM. With `CC1CCCN(c2ccc(C(=O)NCCc3ccccc3)cn2)C1` (stereo not given), the AC50 was > 100 µM (inactive). The same measure, in the same setting: under `Cc1ccc(-c2nc3ccc(NS(=O)(=O)c4ccccc4)cc3[nH]2)o1` stands > 100 µM (inactive).

Consider `Cc1ccn2cc(-c3cccc(NC(=O)c4cccs4)c3)nc2c1`, for which the AC50 was > 100 µM (inactive). Under setting [1], this molecule came in with an AC50 of more than 100 µM. For the molecule `CC[n+]1c(C)cc2c(sc3ccccc32)c1C`, the AC50 was more than 100 µM under setting [1] and more than 100 µM under setting [2]. On to `Cc1ccccc1-n1c([C@@H]2C[C@H]2c2ccccc2)n[nH]c1=S`, for which the AC50 under setting [1] was more than 100 µM. On the same count and under the same terms, to `CCOC(=O)c1cccc(OS(=O)(=O)Cc2ccccc2)c1` belongs more than 100 µM. As to `CC(C)(C)CC(=O)Nc1ccccc1N1CCN(c2ccccc2)CC1`, the AC50 is > 100 µM (inactive).

As to `CCN(CC(=O)Nc1cccc(C#N)c1)CC(=O)Nc1cccc(OC)c1`, the AC50 under setting [1] was more than 100 µM. Still for that read-out and setting: to `COc1ccc(NC(=O)CSc2n[nH]c(-c3ccncc3)n2)c([N+](=O)[O-])c1` belongs more than 100 µM. Consider `CC[N+](CC)(CC#Cc1ccccc1)CC#Cc1ccccc1`, for which the AC50 is > 100 µM (inactive). Besides, under setting [1], the half-maximal activity concentration (AC50) is more than 100 µM. As for `CC(C)NC(=O)N(C)C[C@H]1OCCCC[C@@H](C)Oc2ccc(NC(=O)c3ccccc3)cc2C(=O)N([C@@H](C)CO)C[C@H]1C`, the AC50 is > 100 µM (inactive). Same read-out and setting: under `O=C(CSc1ccc(-c2cccnc2)nn1)N1CCCc2ccccc21` stands > 100 µM (inactive). For the molecule `COc1ccc(CNC(=O)c2sc3nc4c(c(C(F)(F)F)c3c2N)CCC4)cc1OC`, the half-maximal activity concentration (AC50) under setting [2] was more than 100 µM.

`Cc1ccc(OCCCC(=O)NC(C)c2ccccc2)c(C)c1` (stereo not given): the AC50 was > 100 µM (inactive). With `COc1ccc(-n2ccnc2SCC(=O)NCc2ccccc2)c(OC)c1`, the AC50 was > 100 µM (inactive). The molecule further yielded a concentration at half-maximal activity (AC50) under setting [1] of more than 100 µM. Turning to `COc1ccc(C(CC(=O)c2ccc(O)cc2)S(=O)(=O)c2ccc(C)cc2)cc1` (stereo not given), the AC50 is > 100 µM (inactive). Turning to `O=C(Nc1ccc(C(=O)Nc2ccccc2Cl)cc1)c1cccnc1`, the AC50 was > 100 µM (inactive). In addition, the half-maximal activity concentration (AC50) under setting [2] was found to be 8.17 µM. The molecule `O=C(O)CC(CC(=O)Nc1ccc2ccccc2n1)c1ccccc1` (stereo not given) came in with an AC50 under setting [2] of more than 100 µM. For `COC(C(=O)Nc1ccnn1C1CCN(Cc2ccc(Cl)s2)CC1)c1ccccc1` (stereo not given), the AC50 is > 100 µM (inactive). This molecule also yielded a concentration at half-maximal activity (AC50) under setting [2] of more than 100 µM.

As to `C[C@@H]1CCCCO[C@@H](CN(C)C)[C@H](C)CN([C@@H](C)CO)C(=O)c2cc(NC(=O)Nc3cccc4ccccc34)ccc2O1`, under setting [1], the concentration at half-maximal activity (AC50) is more than 100 µM. In turn, `Cc1ccc(-c2nc(CN3CCCCC3c3cccc(F)c3)c(C)o2)o1` (stereo not given) displayed a half-maximal activity concentration (AC50) under setting [1] of more than 100 µM. For `O=C(c1ccc(Cl)cc1)N1CCN(c2cccc3[nH]ccc23)CC1`, the AC50 was > 100 µM (inactive). The molecule also had an AC50 under setting [1] of more than 100 µM. The like results for `COc1cccc(S(=O)(=O)N2CCCCN3[C@H](CO)[C@H](c4ccc(C#CC(C)C)cc4)[C@@H]3C2)c1` were, in that order, > 100 µM (inactive) and more than 100 µM.

Consider `Cc1csc2c(N3CCC(C(=O)O)CC3)ncnc12`, for which the AC50 was > 100 µM (inactive). The molecule also yielded an AC50 under setting [1] of more than 100 µM. Moreover, under setting [2], the concentration at half-maximal activity (AC50) was 50.4 µM. Turning to `Cc1ccc(SCC(=O)Nc2ccc(S(=O)(=O)Nc3nccs3)cc2)cc1`, the AC50 is > 100 µM (inactive). Further, the AC50 under setting [1] was more than 100 µM. Under setting [1], `COc1ccccc1N1CCN(Cc2ccc(OC)c3ccccc23)CC1` gave an AC50 of more than 100 µM. Take `CCCC#C/C(CCC)=C1\c2ccccc2C(=O)N1c1ccccc1`: the AC50 is > 100 µM (inactive). Under setting [1], this molecule showed an AC50 of more than 100 µM. As for `Cc1cccc(-c2ccc([C@H]3[C@@H](CO)N4CCCCN(S(=O)(=O)c5ccccc5C)C[C@H]34)cc2)c1`, the AC50 under setting [1] is more than 100 µM. Regarding `CC(C)(C)C1CCC(C(=O)OCC(=O)N2CCN(C(=O)c3ccco3)CC2)CC1` (stereo not given), the AC50 is > 100 µM (inactive). Regarding `COc1cccc(NC(=O)COC(=O)Cc2ccccc2[N+](=O)[O-])c1`, the AC50 was > 100 µM (inactive). Besides, the half-maximal activity concentration (AC50) under setting [1] is more than 100 µM.

Take `O=c1c2ccccc2cnn1Cc1n[nH]c(=S)n1C1CC2CCC1C2` (stereo not given): the AC50 is > 100 µM (inactive). Under setting [1], the AC50 is more than 100 µM.

As for `CC(C)C[C@@H](CSc1ccccc1)N1CCN(CC(C)C)CCC1=O`, the AC50 was > 100 µM (inactive). For the same molecule, under setting [1], the AC50 is more than 100 µM. Consider `COc1ccc(OC2C(=O)N(Cc3ccc4c(c3)OCO4)C2c2sccc2C)cc1` (stereo not given), for which the AC50 was > 100 µM (inactive). Moreover, the half-maximal activity concentration (AC50) under setting [1] is more than 100 µM. The like results for `NC(=O)c1ccsc1NC(=O)COC(=O)CSc1ccc(Cl)cc1` were, in that order, > 100 µM (inactive) and more than 100 µM. Consider `O=C(O)CC(CC(=O)Nc1ccc(Oc2ccccc2)cc1)c1ccccc1` (stereo not given), for which the AC50 was > 100 µM (inactive). In the case of `O=C(Nc1ccc(Br)cc1)c1cccnc1N1CCCCC1`, the AC50 is > 100 µM (inactive). This molecule also came in with an AC50 under setting [1] of more than 100 µM.

`O=C(CC1C(=O)N(c2ccc(Cl)cc2)C(=S)N1CCc1ccncc1)Nc1ccc(F)cc1` (stereo not given): the AC50 was > 100 µM (inactive). In addition, the AC50 under setting [1] is 41.8 µM.

As to `Cc1ccc(NC(=O)c2ccc([N+](=O)[O-])o2)c(C)c1`, the AC50 is > 100 µM (inactive). For the molecule `CCOc1ccc(S(=O)(=O)N(C)c2ccc(OCC(=O)NCc3cccnc3)cc2)cc1`, the AC50 is > 100 µM (inactive). Also, the half-maximal activity concentration (AC50) under setting [1] was more than 100 µM. For `COc1ccc(OC)c(S(=O)(=O)Nc2cccc3ccc(O)cc23)c1`, the AC50 was > 100 µM (inactive). Same read-out and setting: under `C=CCn1c(C)cc(C(=O)COC(=O)CNC(=O)c2ccccc2)c1C` stands > 100 µM (inactive). Molecule `COc1ccc(C#Cc2ccc([C@H]3[C@@H](CO)N4CCCCN(C(=O)Nc5cccc(F)c5)C[C@H]34)cc2)cc1` showed an AC50 under setting [1] of more than 100 µM. With `COc1cc2[nH]c(=S)nc(NCCc3ccc(C)cc3)c2cc1OC`, the AC50 was > 100 µM (inactive). The same measure, in the same setting: to `C=C(C)Cn1c(=O)c2c(nc3n2CC(C)CN3Cc2ccccc2)n(C)c1=O` (stereo not given) belongs > 100 µM (inactive); to `COc1ccc(C2CC(=O)Oc3cc(C)cc(C)c32)cc1` (stereo not given), > 100 µM (inactive); to `Cc1c(C(=O)O)oc2ccc(S(=O)(=O)NC3CCCCCCC3)cc12`, > 100 µM (inactive). The same measure, in the same setting: under `CCN(CC)CC(=O)Nc1sc2c(c1C(=O)c1ccccc1OC)CCC2` stands > 100 µM (inactive). For `O=C(Nc1cccc(Cl)c1)N1C[C@@H]2[C@H](c3ccccc31)[C@H](CO)N2Cc1ccncc1`, the AC50 is > 100 µM (inactive). The molecule also came in with an AC50 under setting [1] of more than 100 µM. On the same counts, the results for `CN(C)CCCN(C(=O)CCSc1ccccc1)c1nc2cc3c(cc2s1)OCO3` are > 100 µM (inactive) and more than 100 µM. `CC1Cc2cc(S(=O)(=O)N3CCN(c4cccc(Cl)c4)CC3)ccc2N1C(=O)C1CC1` (stereo not given) yielded an AC50 under setting [1] of more than 100 µM.

In turn, `O=C(C[n+]1ccc(Cc2ccccc2)cc1)Nc1ccc([N+](=O)[O-])cc1Cl` gave a concentration at half-maximal activity (AC50) under setting [2] of more than 100 µM.

For `NC(=O)c1cc(NC(=O)c2cc(Br)c(Br)s2)cc(C(N)=O)c1`, the AC50 was > 100 µM (inactive). Under setting [1], `C[C@@H]1CN([C@@H](C)CO)C(=O)c2cccc(NC(=O)c3nc4ccccc4s3)c2O[C@@H]1CN(C)CC1CC1` registered an AC50 of more than 100 µM.

In turn, `Cc1cccc(-c2ccc([C@@H]3[C@@H](CO)N4CCCCN(S(=O)(=O)c5ccccc5C)C[C@@H]34)cc2)c1` came in with a half-maximal activity concentration (AC50) under setting [1] of more than 100 µM.

For `Cc1nc(SCC(=O)Nc2ccc3c(c2)OCCO3)nc(C)c1C`, the AC50 is > 100 µM (inactive). For the same molecule, under setting [1], the concentration at half-maximal activity (AC50) is 46.5 µM. Regarding `CCOC(=O)c1ccc(CC(=O)c2oc3cc(O)ccc3c2C)o1`, the AC50 was > 100 µM (inactive). With `COc1cc(NC(=O)c2ccc(Cl)cc2)c(OC)cc1NC(=O)CN1CCCCC1`, the half-maximal activity concentration (AC50) under setting [1] is more than 100 µM. As for `COC(=O)c1sc(C(C)(C)C)cc1CS(=O)(=O)c1ccc(Cl)cc1`, the AC50 is > 100 µM (inactive). Moreover, under setting [1], the half-maximal activity concentration (AC50) is more than 100 µM.

Regarding `Cc1ccc(C(=O)Nc2ccc3ncccc3c2)cc1`, the AC50 was > 100 µM (inactive). Turning to `NS(=O)(=O)c1ccc(NC(=O)CCC(=O)O)cc1`, the AC50 under setting [1] is more than 100 µM.

As to `CN(C)CCCNc1ccc(-c2cc(Nc3cccc(Cl)c3)ncn2)cn1`, the AC50 is > 100 µM (inactive). Turning to `CC1(C(=O)NS(=O)(=O)c2cccc(Cl)c2)CCN1C(=O)C1(c2ccc(Cl)cc2)CCC1` (stereo not given), the AC50 was > 100 µM (inactive).

Consider `O=C(COC(=O)c1ccc([N+](=O)[O-])o1)NC12CC3CC(CC(C3)C1)C2`, for which the AC50 was > 100 µM (inactive).

In turn, `CCOC(=O)C1NN=C(C(=O)c2ccccc2)C1c1ccc(OC)cc1` (stereo not given) came in with an AC50 under setting [1] of more than 100 µM.

As to `O=C(Nc1ccc2c(c1)OCO2)c1ccc([N+](=O)[O-])cc1[N+](=O)[O-]`, the AC50 is > 100 µM (inactive). Regarding `O=C(Cn1cc(COc2c(F)c(F)cc(F)c2F)nn1)c1ccc(O)cc1`, the AC50 was > 100 µM (inactive). Under setting [1], this molecule returned a half-maximal activity concentration (AC50) of more than 100 µM.

The molecule `c1ccc(CSCc2ccccc2)cc1` returned an AC50 under setting [2] of more than 100 µM. Turning to `CCCN(Cc1ccco1)S(=O)(=O)c1ccc(OC)c(OC)c1`, the AC50 was > 100 µM (inactive). The half-maximal activity concentration (AC50) under setting [1] is more than 100 µM. Also, the half-maximal activity concentration (AC50) under setting [2] is more than 100 µM.

Consider `CCCNc1ccc(C(=O)OCC)cc1[N+](=O)[O-]`, for which the AC50 was > 100 µM (inactive). Moreover, under setting [1], the half-maximal activity concentration (AC50) was more than 100 µM. Regarding `O=C(OCC1COc2ccccc2O1)c1ccccc1F` (stereo not given), the AC50 under setting [2] is more than 100 µM. For the molecule `O=S(=O)(c1ccc(Cl)cc1)N1CCN=C1SCc1cccc(Cl)c1`, the AC50 is > 100 µM (inactive). As for `CCN(CC)S(=O)(=O)c1ccc(N2CCCC2)c(NC(=O)c2ccccc2OC)c1`, the AC50 is > 100 µM (inactive).

For the molecule `C=CCN(CC=C)C(=O)c1ccc2nc(Cc3ccc(OC)c(OC)c3)oc2c1`, the AC50 is > 100 µM (inactive). Under setting [1], `COc1ccc(OC)c(NC(=O)CN(C)CC(=O)Nc2ccccc2Br)c1` had an AC50 of more than 100 µM.
